Source: patent US11541028B2, “Peptide pharmaceuticals for treatment of NASH and other disorders” (Mederis Diabetes LLC, priority 2018, dated 2023)

Tested on: db/db mice
Experiment: Glucose-lowering activity in db/db mice
Format: in vivo
Conditions: for time for which elevated blood glucose level was reduced to the normal range: 250 nmol/kg subcutaneously at t=0 and 7 hr (FIG. 9)
Protocol: The 60 female db/db B6BKS (D) Leprdb/J (strain 000697) mice for this study were about 8-9 weeks old at arrival (Jackson Laboratory, Bar Harbor, Me.). […] One group of 8 female mice served as the vehicle control and received the vehicle, 0.2% BSA in saline, pH 7.4. One additional group of 8 female mice received the positive-control compound, liraglutide, at a dose level of 50 nmoles/kg. The test compounds, vehicle and positive-control compound were subcutaneously injected at a dose volume of 6 mL/kg on day 1 at about 0, 7 and 24 hours.
Clinical observations were conducted at receipt, prior to randomization, and daily from days 1 to 5. Body weights were measured and recorded at receipt, prior to randomization, and daily from days 1 to 5. Food consumption was measured and recorded daily from days 1 to 5. Blood samples for glucose analysis were collected pre-study (day −3) and at 0, 1, 2, 4, 8, 10, 24, 48, 72 and 96 hours following the first dose on day 1. At study termination all animals were euthanized, and the carcasses were discarded without further evaluation.

SMILES	time for which elevated blood glucose level was reduced to the normal range (db/db mice)	db/db Mice-Mean Blood Glucose (mg/dL) 0 hr (dose 250 nmole/kg sc)	db/db Mice-Mean Blood Glucose (mg/dL) 10 hr (dose 250 nmole/kg sc)	db/db Mice-Mean Blood Glucose (mg/dL) 24 hr (dose 250 nmole/kg sc)	db/db Mice-Mean Blood Glucose (mg/dL) 48 hr (dose 250 nmole/kg sc)	body weight changes versus vehicle (db/db mice, high-dose (300 nmoles/kg) sc at 0, 7 and 24 hours, days 2 and 3)	glucose levels versus vehicle (db/db mice, high-dose (300 nmoles/kg), at 10 and 24 hr)	food consumption versus liraglutide (db/db mice, high-dose (300 nmoles/kg), day 1)	db/db Mice-Mean Blood Glucose (mg/dL) 0 hr (dose 300 nmole/kg sc)	db/db Mice-Mean Blood Glucose (mg/dL) 10 hr (dose 300 nmole/kg sc)	db/db Mice-Mean Blood Glucose (mg/dL) 24 hr (dose 300 nmole/kg sc)	db/db Mice-Mean Blood Glucose (mg/dL) 48 hr (dose 300 nmole/kg sc)	db/db Mice-Mean Blood Glucose (mg/dL) 0 hr (dose 50 nmole/kg sc)	db/db Mice-Mean Blood Glucose (mg/dL) 10 hr (dose 50 nmole/kg sc)	db/db Mice-Mean Blood Glucose (mg/dL) 24 hr (dose 50 nmole/kg sc)	db/db Mice-Mean Blood Glucose (mg/dL) 48 hr (dose 50 nmole/kg sc)
CCCCCCCCO[C@@H]1O[C@H](C(=O)NCCCC[C@H](NC(=O)[C@@H](NC(=O)[C@H](Cc2ccccc2)NC(=O)[C@H](CCC(=O)O)NC(=O)[C@@H]2CCCCNC(=O)CC[C@H](NC(=O)[C@H](CC(=O)O)NC(=O)[C@H](CC(C)C)NC(=O)[C@H](Cc3ccc(O)cc3)NC(=O)[C@H](CCCCN)NC(=O)[C@H](CO)NC(=O)[C@H](Cc3ccc(O)cc3)NC(=O)[C@H](CC(=O)O)NC(=O)[C@H](CO)NC(=O)[C@@H](NC(=O)[C@H](Cc3ccccc3)NC(=O)[C@@H](NC(=O)CNC(=O)[C@H](CCC(N)=O)NC(=O)C(C)(C)NC(=O)[C@@H](N)Cc3c[nH]cn3)[C@@H](C)O)[C@@H](C)O)C(=O)N[C@@H](CCC(N)=O)C(=O)N[C@@H](C)C(=O)N[C@@H](C)C(=O)N2)[C@@H](C)CC)C(=O)N[C@@H](Cc2c[nH]c3ccccc23)C(=O)N[C@@H](CC(C)C)C(=O)N[C@@H](CC(C)C)C(=O)N[C@@H](CCC(N)=O)C(=O)N[C@H](C(N)=O)[C@@H](C)O)[C@@H](O)[C@H](O)[C@H]1O [EU-A992]	around 72 hr	405 mg/dL	104 mg/dL	112 mg/dL	130 mg/dL											
CCCCCCCCCCCCO[C@@H]1O[C@H](C(=O)NCCCC[C@H](NC(=O)[C@@H](NC(=O)[C@H](Cc2ccccc2)NC(=O)[C@H](CCC(=O)O)NC(=O)[C@@H]2CCCCNC(=O)CC[C@H](NC(=O)[C@H](CC(=O)O)NC(=O)[C@H](CC(C)C)NC(=O)[C@H](Cc3ccc(O)cc3)NC(=O)[C@H](CCCCN)NC(=O)[C@H](CO)NC(=O)[C@H](Cc3ccc(O)cc3)NC(=O)[C@H](CC(=O)O)NC(=O)[C@H](CO)NC(=O)[C@@H](NC(=O)[C@H](Cc3ccccc3)NC(=O)[C@@H](NC(=O)CNC(=O)[C@H](CCC(N)=O)NC(=O)C(C)(C)NC(=O)[C@@H](N)Cc3c[nH]cn3)[C@@H](C)O)[C@@H](C)O)C(=O)N[C@@H](CCC(N)=O)C(=O)N[C@@H](C)C(=O)N[C@@H](C)C(=O)N2)[C@@H](C)CC)C(=O)N[C@@H](Cc2c[nH]c3ccccc23)C(=O)N[C@@H](CC(C)C)C(=O)N[C@@H](CC(C)C)C(=O)N[C@@H](CCC(N)=O)C(=O)N[C@H](C(N)=O)[C@@H](C)O)[C@@H](O)[C@H](O)[C@H]1O [EU-A993]		503 mg/dL	305 mg/dL	324 mg/dL	426 mg/dL											
CCCCCCCCCCCCCCO[C@@H]1O[C@H](C(=O)NCCCC[C@H](NC(=O)[C@@H](NC(=O)[C@H](Cc2ccccc2)NC(=O)[C@H](CCC(=O)O)NC(=O)[C@@H]2CCCCNC(=O)CC[C@H](NC(=O)[C@H](CC(=O)O)NC(=O)[C@H](CC(C)C)NC(=O)[C@H](Cc3ccc(O)cc3)NC(=O)[C@H](CCCCN)NC(=O)[C@H](CO)NC(=O)[C@H](Cc3ccc(O)cc3)NC(=O)[C@H](CC(=O)O)NC(=O)[C@H](CO)NC(=O)[C@@H](NC(=O)[C@H](Cc3ccccc3)NC(=O)[C@@H](NC(=O)CNC(=O)[C@H](CCC(N)=O)NC(=O)C(C)(C)NC(=O)[C@@H](N)Cc3c[nH]cn3)[C@@H](C)O)[C@@H](C)O)C(=O)N[C@@H](CCC(N)=O)C(=O)N[C@@H](C)C(=O)N[C@@H](C)C(=O)N2)[C@@H](C)CC)C(=O)N[C@@H](Cc2c[nH]c3ccccc23)C(=O)N[C@@H](CC(C)C)C(=O)N[C@@H](CC(C)C)C(=O)N[C@@H](CCC(N)=O)C(=O)N[C@H](C(N)=O)[C@@H](C)O)[C@@H](O)[C@H](O)[C@H]1O [EU-A994]						Significant body weight changes versus vehicle	significantly different from vehicle	significantly different from liraglutide	554 mg/dL	242 mg/dL	209 mg/dL	385 mg/dL				
CCCCCCCCCCCCO[C@@H]1O[C@H](CO[C@H]2O[C@H](C(=O)NCCCC[C@H](NC(=O)[C@@H](NC(=O)[C@H](Cc3ccccc3)NC(=O)[C@H](CCC(=O)O)NC(=O)[C@@H]3CCCCNC(=O)CC[C@H](NC(=O)[C@H](CC(=O)O)NC(=O)[C@H](CC(C)C)NC(=O)[C@H](Cc4ccc(O)cc4)NC(=O)[C@H](CCCCN)NC(=O)[C@H](CO)NC(=O)[C@H](Cc4ccc(O)cc4)NC(=O)[C@H](CC(=O)O)NC(=O)[C@H](CO)NC(=O)[C@@H](NC(=O)[C@H](Cc4ccccc4)NC(=O)[C@@H](NC(=O)CNC(=O)[C@H](CCC(N)=O)NC(=O)C(C)(C)NC(=O)[C@@H](N)Cc4c[nH]cn4)[C@@H](C)O)[C@@H](C)O)C(=O)N[C@@H](CCC(N)=O)C(=O)N[C@@H](C)C(=O)N[C@@H](C)C(=O)N3)[C@@H](C)CC)C(=O)N[C@@H](Cc3c[nH]c4ccccc34)C(=O)N[C@@H](CC(C)C)C(=O)N[C@@H](CC(C)C)C(=O)N[C@@H](CCC(N)=O)C(=O)N[C@H](C(N)=O)[C@@H](C)O)[C@H](O)[C@H](O)[C@H]2O)[C@@H](O)[C@H](O)[C@H]1O [EU-A1023]		508 mg/dL	264 mg/dL	194 mg/dL	375 mg/dL								507 mg/dL	310 mg/dL	355 mg/dL	375 mg/dL
CCCCCCCCCCO[C@@H]1O[C@H](C(=O)NCCCC[C@H](NC(=O)[C@@H](NC(=O)[C@H](Cc2ccccc2)NC(=O)[C@H](CCC(=O)O)NC(=O)[C@@H]2CCCCNC(=O)CC[C@H](NC(=O)[C@H](CC(=O)O)NC(=O)[C@H](CC(C)C)NC(=O)[C@H](Cc3ccc(O)cc3)NC(=O)[C@H](CCCCN)NC(=O)[C@H](CO)NC(=O)[C@H](Cc3ccc(O)cc3)NC(=O)[C@H](CC(=O)O)NC(=O)[C@H](CO)NC(=O)[C@@H](NC(=O)[C@H](Cc3ccccc3)NC(=O)[C@@H](NC(=O)CNC(=O)[C@H](CCC(N)=O)NC(=O)C(C)(C)NC(=O)[C@@H](N)Cc3c[nH]cn3)[C@@H](C)O)[C@@H](C)O)C(=O)N[C@@H](CCC(N)=O)C(=O)N[C@@H](C)C(=O)N[C@@H](C)C(=O)N2)[C@@H](C)CC)C(=O)N[C@@H](Cc2c[nH]c3ccccc23)C(=O)N[C@@H](CC(C)C)C(=O)N[C@@H](CC(C)C)C(=O)N[C@@H](CCC(N)=O)C(=O)N[C@H](C(N)=O)[C@@H](C)O)[C@@H](O)[C@H](O)[C@H]1O [EU-A1167]	around 72 hr	379 mg/dL	171 mg/dL	117 mg/dL	113 mg/dL											
CCCCCCCCCCCO[C@@H]1O[C@H](C(=O)NCCCC[C@H](NC(=O)[C@@H](NC(=O)[C@H](Cc2ccccc2)NC(=O)[C@H](CCC(=O)O)NC(=O)[C@@H]2CCCCNC(=O)CC[C@H](NC(=O)[C@H](CC(=O)O)NC(=O)[C@H](CC(C)C)NC(=O)[C@H](Cc3ccc(O)cc3)NC(=O)[C@H](CCCCN)NC(=O)[C@H](CO)NC(=O)[C@H](Cc3ccc(O)cc3)NC(=O)[C@H](CC(=O)O)NC(=O)[C@H](CO)NC(=O)[C@@H](NC(=O)[C@H](Cc3ccccc3)NC(=O)[C@@H](NC(=O)CNC(=O)[C@H](CCC(N)=O)NC(=O)C(C)(C)NC(=O)[C@@H](N)Cc3c[nH]cn3)[C@@H](C)O)[C@@H](C)O)C(=O)N[C@@H](CCC(N)=O)C(=O)N[C@@H](C)C(=O)N[C@@H](C)C(=O)N2)[C@@H](C)CC)C(=O)N[C@@H](Cc2c[nH]c3ccccc23)C(=O)N[C@@H](CC(C)C)C(=O)N[C@@H](CC(C)C)C(=O)N[C@@H](CCC(N)=O)C(=O)N[C@H](C(N)=O)[C@@H](C)O)[C@@H](O)[C@H](O)[C@H]1O [EU-A1168]	around 72 hr	380 mg/dL	133 mg/dL	169 mg/dL	164 mg/dL											
